Key:
[1] = biological target: T1, Progesterone receptor (Homo sapiens, UniProt P06401); assay type: functional
T1 sequence (P06401 whole entry): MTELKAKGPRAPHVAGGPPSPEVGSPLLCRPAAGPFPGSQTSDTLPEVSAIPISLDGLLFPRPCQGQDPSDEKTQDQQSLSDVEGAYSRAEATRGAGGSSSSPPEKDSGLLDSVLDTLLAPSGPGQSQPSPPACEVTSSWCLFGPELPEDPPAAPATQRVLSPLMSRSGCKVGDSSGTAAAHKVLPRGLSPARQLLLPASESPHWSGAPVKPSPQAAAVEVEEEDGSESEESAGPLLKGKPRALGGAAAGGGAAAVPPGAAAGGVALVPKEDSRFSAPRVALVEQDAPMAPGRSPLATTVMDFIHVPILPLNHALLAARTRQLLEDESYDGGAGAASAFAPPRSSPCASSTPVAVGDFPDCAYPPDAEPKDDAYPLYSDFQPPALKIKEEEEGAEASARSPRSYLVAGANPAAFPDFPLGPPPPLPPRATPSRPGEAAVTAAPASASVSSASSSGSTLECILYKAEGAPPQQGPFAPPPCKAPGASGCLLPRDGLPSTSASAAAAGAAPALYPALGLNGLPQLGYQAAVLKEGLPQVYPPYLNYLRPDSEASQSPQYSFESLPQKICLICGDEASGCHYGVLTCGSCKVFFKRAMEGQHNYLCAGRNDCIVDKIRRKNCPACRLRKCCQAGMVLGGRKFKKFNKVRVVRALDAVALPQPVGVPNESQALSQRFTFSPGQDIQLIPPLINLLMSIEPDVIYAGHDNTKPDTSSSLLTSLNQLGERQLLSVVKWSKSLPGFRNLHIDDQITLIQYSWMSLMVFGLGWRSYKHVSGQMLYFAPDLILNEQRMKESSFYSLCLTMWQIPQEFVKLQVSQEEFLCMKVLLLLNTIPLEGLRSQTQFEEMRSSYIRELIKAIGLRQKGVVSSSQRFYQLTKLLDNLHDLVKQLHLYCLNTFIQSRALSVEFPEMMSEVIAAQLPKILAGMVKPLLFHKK

[2] = biological target: T2, Thromboxane A2 receptor (Homo sapiens, UniProt P21731); assay type: functional, cell-based
T2 sequence (P21731 whole entry): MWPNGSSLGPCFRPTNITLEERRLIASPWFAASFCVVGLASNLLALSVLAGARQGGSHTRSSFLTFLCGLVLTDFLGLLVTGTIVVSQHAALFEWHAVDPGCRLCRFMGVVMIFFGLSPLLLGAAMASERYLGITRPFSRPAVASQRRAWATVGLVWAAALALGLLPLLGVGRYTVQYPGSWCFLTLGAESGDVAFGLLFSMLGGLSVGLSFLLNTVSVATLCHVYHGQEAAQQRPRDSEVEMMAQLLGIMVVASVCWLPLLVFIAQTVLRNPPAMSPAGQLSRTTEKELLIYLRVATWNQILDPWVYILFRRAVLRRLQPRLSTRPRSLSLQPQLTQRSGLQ

[3] = biological target: T3, Adenosine receptor A3 (Homo sapiens, UniProt P0DMS8)
T3 sequence (P0DMS8 whole entry): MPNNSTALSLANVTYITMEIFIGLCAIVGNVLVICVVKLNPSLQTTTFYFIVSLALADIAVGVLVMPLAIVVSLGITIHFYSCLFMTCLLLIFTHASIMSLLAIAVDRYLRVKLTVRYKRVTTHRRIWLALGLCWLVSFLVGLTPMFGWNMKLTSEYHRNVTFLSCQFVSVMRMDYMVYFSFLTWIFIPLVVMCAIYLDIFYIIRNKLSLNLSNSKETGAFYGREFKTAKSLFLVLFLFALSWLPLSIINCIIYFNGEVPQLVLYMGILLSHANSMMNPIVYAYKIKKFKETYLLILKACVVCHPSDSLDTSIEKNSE

[4] = biological target: T4, Amine oxidase [flavin-containing] A (Homo sapiens, UniProt P21397); assay type: functional
T4 sequence (P21397 whole entry): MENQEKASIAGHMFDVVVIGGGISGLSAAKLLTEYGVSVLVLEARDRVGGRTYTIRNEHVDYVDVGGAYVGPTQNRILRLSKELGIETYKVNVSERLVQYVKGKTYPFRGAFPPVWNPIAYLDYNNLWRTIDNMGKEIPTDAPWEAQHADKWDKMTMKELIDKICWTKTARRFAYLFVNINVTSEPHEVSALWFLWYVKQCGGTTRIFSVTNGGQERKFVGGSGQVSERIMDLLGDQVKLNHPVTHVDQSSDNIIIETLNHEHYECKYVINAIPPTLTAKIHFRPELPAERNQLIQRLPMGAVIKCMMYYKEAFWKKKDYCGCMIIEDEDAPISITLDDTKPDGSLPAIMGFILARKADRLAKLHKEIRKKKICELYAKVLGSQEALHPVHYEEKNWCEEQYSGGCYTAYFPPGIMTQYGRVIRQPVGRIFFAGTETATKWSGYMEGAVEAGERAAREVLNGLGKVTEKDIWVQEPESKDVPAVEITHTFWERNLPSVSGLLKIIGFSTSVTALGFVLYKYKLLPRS

[5] = biological target: T5, Muscarinic acetylcholine receptor M1 (Homo sapiens, UniProt P11229); assay type: functional, cell-based
T5 sequence (P11229 whole entry): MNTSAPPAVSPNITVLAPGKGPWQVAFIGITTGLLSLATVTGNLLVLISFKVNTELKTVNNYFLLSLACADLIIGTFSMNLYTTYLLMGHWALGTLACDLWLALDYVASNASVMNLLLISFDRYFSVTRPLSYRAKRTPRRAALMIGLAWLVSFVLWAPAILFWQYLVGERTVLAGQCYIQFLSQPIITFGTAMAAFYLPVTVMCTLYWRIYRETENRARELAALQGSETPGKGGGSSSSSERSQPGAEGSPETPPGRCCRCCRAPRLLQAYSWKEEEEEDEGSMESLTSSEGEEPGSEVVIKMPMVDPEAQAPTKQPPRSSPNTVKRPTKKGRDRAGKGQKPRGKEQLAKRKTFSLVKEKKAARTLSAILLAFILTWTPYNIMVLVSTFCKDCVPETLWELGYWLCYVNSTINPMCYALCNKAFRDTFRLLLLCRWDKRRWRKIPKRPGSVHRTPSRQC
Further: assay procedure not described here.

Row | SMILES | AC50 [1] | also measured
1 | CCCCC1C(=O)N(c2ccccc2)N(c2ccccc2)C1=O [PHENYLBUTAZONE] | > 10 µM | –
2 | COC(=O)c1ccc(O)cc1 [METHYLPARABEN] | – | AC50 [2]: > 30 µM; AC50 [3]: > 30 µM; AC50 [4]: > 30 µM
3 | CC1OC2(CS1)CN1CCC2CC1 (stereo not given) [CEVIMELINE] | > 10 µM | –
4 | CCC(C)C1(CC)C(=O)NC(=O)NC1=O (stereo not given) [BUTABARBITAL] | > 30 µM | –
5 | Cc1c(N(C)CS(=O)(=O)O)c(=O)n(-c2ccccc2)n1C [METAMIZOLE] | – | AC50 [2]: > 30 µM; AC50 [3]: > 30 µM; AC50 [4]: > 30 µM
6 | Oc1ccc2c(c1)CC[C@H](c1ccccc1)[C@@H]2c1ccc(OCCN2CCCC2)cc1 [LASOFOXIFENE] | > 30 µM | –
7 | Cc1cccc(N2CC(CO)OC2=O)c1 (stereo not given) [TOLOXATONE] | > 30 µM | –
8 | Cc1cc(C(C)(C)C)cc(C)c1CC1=NCCN1 [XYLOMETAZOLINE] | > 30 µM | –
9 | COc1cc(N)c(Cl)cc1C(=O)NC1CCN(Cc2ccccc2)CC1 [CLEBOPRIDE] | > 30 µM | –
10 | C[C@]12CC[C@@H]3c4ccc(O)cc4C[C@@H](CCCCCCCCC[S+]([O-])CCCC(F)(F)C(F)(F)F)[C@H]3[C@@H]1CC[C@@H]2O (stereo not given in full) [FULVESTRANT] | > 30 µM | –
11 | Cc1ccccc1N1CCN(CCc2nnc3n2CCCC3)CC1 [DAPIPRAZOLE] | – | AC50 [2]: > 30 µM; AC50 [3]: > 30 µM; AC50 [4]: > 30 µM
12 | OC1(c2ccc(Cl)cc2)c2ccccc2C2=NCCN21 (stereo not given) [MAZINDOL] | > 30 µM | –
13 | C=CCNc1nc(NCC=C)nc(N2CCN(C(c3ccc(F)cc3)c3ccc(F)cc3)CC2)n1 [ALMITRINE] | > 30 µM | –
14 | CC(C(=O)O)c1ccc(-c2ccccc2)c(F)c1 (stereo not given) [FLURBIPROFEN] | – | AC50 [2]: > 30 µM; AC50 [3]: > 30 µM; AC50 [4]: > 30 µM
15 | CC(C)(C)NC[C@H](O)COc1cccc2c1CCCC2=O [LEVOBUNOLOL] | – | AC50 [2]: > 30 µM; AC50 [3]: > 30 µM; AC50 [4]: > 30 µM
16 | COCC1=C(C(=O)O)N2C(=O)[C@@H](NC(=O)/C(=N\OC)c3csc(N)n3)[C@H]2SC1 [CEFPODOXIME] | > 30 µM | –
17 | Nc1ncn([C@H]2C[C@H](O)[C@@H](CO)O2)c(=O)n1 [DECITABINE] | > 30 µM | –
18 | O=C(O)c1cn(C2CC2)c2cc(N3CCNCC3)c(F)cc2c1=O [CIPROFLOXACIN] | – | AC50 [2]: > 30 µM
19 | CCOC(=O)c1cncn1[C@H](C)c1ccccc1 [ETOMIDATE] | > 10 µM | –
20 | CC(C)NCC(O)c1ccc(O)c(O)c1 (stereo not given) [ISOPROTERENOL] | > 30 µM | –
21 | CC(C(=O)O)c1ccc(CC2CCCC2=O)cc1 (stereo not given) [LOXOPROFEN] | > 30 µM | –
22 | CC(CCc1ccc(O)cc1)NCCc1ccc(O)c(O)c1 (stereo not given) [DOBUTAMINE] | > 30 µM | –
23 | CC(=O)O[C@]1(C(C)=O)CC[C@H]2[C@@H]3C=C(Cl)C4=CC(=O)CC[C@]4(C)[C@H]3CC[C@@]21C [CHLORMADINONE ACETATE] | – | AC50 [2]: 28.5 µM; AC50 [3]: 21 µM; AC50 [4]: > 30 µM
24 | Clc1ccc2c(N3CCN(CCCN4CCN(c5ccnc6cc(Cl)ccc56)CC4)CC3)ccnc2c1 [PIPERAQUINE] | > 30 µM | –
25 | COc1ccc(CN(CCN(C)C)c2ccccn2)cc1 [PYRILAMINE] | – | AC50 [2]: > 30 µM; AC50 [3]: > 30 µM; AC50 [4]: > 30 µM

Row | SMILES | AC50 [1] | also measured
26 | CC1(C)S[C@@H]2[C@H](NC(=O)[C@H](N)c3ccccc3)C(=O)N2[C@H]1C(=O)OCOC(=O)[C@@H]1N2C(=O)C[C@H]2S(=O)(=O)C1(C)C [SULTAMICILLIN] | > 30 µM | –
27 | CC(C)[C@H](N)C(=O)OCC(CO)OCn1cnc2c(=O)nc(N)[nH]c21 (stereo not given in full) [VALGANCICLOVIR] | > 30 µM | –
28 | CCN(CC)C(=S)S [DITIOCARB] | – | AC50 [5]: > 1 µM; AC50 [2]: > 1 µM; AC50 [4]: > 30 µM
29 | CC(=O)N[C@@H](CS)C(=O)O [ACETYLCYSTEINE] | > 30 µM | –
30 | CCC1(c2ccccc2)CCC(=O)NC1=O (stereo not given) [GLUTETHIMIDE] | > 10 µM | –
31 | O=[N+]([O-])c1ccc(O)c2ncccc12 [NITROXOLINE] | – | AC50 [2]: > 30 µM; AC50 [4]: > 30 µM
32 | C/N=C(\NC)NCc1ccccc1 [BETHANIDINE] | > 30 µM | –
33 | CN(C)CCCNc1c2ccccc2nc2cccc([N+](=O)[O-])c12 [NITRACRINE] | > 30 µM | –
34 | CCC(=O)O[C@H]1CC[C@H]2[C@@H]3CCC4=CC(=O)CC[C@]4(C)[C@H]3CC[C@]12C [TESTOSTERONE PROPIONATE] | 0.328 µM | –
35 | CNCc1ccc(-c2[nH]c3cc(F)cc4c3c2CCNC4=O)cc1 [RUCAPARIB] | 15.6 µM | –
36 | CCCN[C@H]1CCc2nc(N)sc2C1 [PRAMIPEXOLE] | > 30 µM | –
37 | C#C[C@]1(OC(C)=O)CC[C@H]2[C@@H]3CCC4=C/C(=N/O)CC[C@@H]4[C@H]3CC[C@@]21CC [NORGESTIMATE] | 0.02 µM | –
38 | Cc1noc(NS(=O)(=O)c2ccc(N)cc2)c1C [SULFISOXAZOLE] | > 10 µM | –
39 | CCC(C)C(CC)C(N)=O (stereo not given) [VALNOCTAMIDE] | > 30 µM | –
40 | Clc1ccc(C(Cn2ccnc2)OCc2ccsc2Cl)c(Cl)c1 (stereo not given) [TIOCONAZOLE] | > 30 µM | –
41 | CC(C)(C)C(=O)OCC(=O)[C@H]1CC[C@H]2[C@@H]3CCC4=CC(=O)CC[C@]4(C)[C@H]3CC[C@]12C [DESOXYCORTICOSTERONE PIVALATE] | 0.213 µM | –
42 | C[C@]12CCC(=O)C(O)=C1CC[C@@H]1[C@@H]2CC[C@]2(C)C(=O)CC[C@@H]12 [FORMESTANE] | 3.7 µM | –
43 | CC(C)COCC(CN(Cc1ccccc1)c1ccccc1)N1CCCC1 (stereo not given) [BEPRIDIL] | > 30 µM | –
44 | Cc1cc2cc3c(C)cc(=O)oc3c(C)c2o1 [TRIOXSALEN] | > 30 µM | –
45 | Cc1cnc(C(=O)NCCc2ccc(S(=O)(=O)NC(=O)NC3CCCCC3)cc2)cn1 [GLIPIZIDE] | – | AC50 [2]: > 30 µM; AC50 [4]: > 30 µM
46 | CN1CCN(C2=Nc3ccccc3Oc3ccc(Cl)cc32)CC1 [LOXAPINE] | – | AC50 [2]: 18.5 µM; AC50 [3]: 27.4 µM; AC50 [4]: > 30 µM
47 | CCOC(=O)C1=C[C@]2(CC)CCCN3CCc4c(n1c1ccccc41)[C@@H]32 [VINPOCETINE] | > 30 µM | –
48 | C[C@H](Cc1ccc(O)c(O)c1)[C@@H](C)Cc1ccc(O)c(O)c1 [MASOPROCOL] | > 30 µM | –
49 | C=C1CC[C@H](O)C/C1=C/C=C1\CCC[C@]2(C)[C@@H]([C@H](C)/C=C/[C@H](C)C(C)C)CC[C@@H]12 [ERGOCALCIFEROL] | – | AC50 [2]: > 30 µM; AC50 [4]: > 30 µM
